What was measured:
[1] = target: T1, lipase type II from porcine pancreas (Sus scrofa, UniProt P00591); test: lipase inhibition assay; assay type: biochemical; conditions: maximal inhibition reached
T1 construct: purchased Sigma-Aldrich (Madrid, Spain); host or cells: porcine pancreas
T1 sequence (P00591 1-450): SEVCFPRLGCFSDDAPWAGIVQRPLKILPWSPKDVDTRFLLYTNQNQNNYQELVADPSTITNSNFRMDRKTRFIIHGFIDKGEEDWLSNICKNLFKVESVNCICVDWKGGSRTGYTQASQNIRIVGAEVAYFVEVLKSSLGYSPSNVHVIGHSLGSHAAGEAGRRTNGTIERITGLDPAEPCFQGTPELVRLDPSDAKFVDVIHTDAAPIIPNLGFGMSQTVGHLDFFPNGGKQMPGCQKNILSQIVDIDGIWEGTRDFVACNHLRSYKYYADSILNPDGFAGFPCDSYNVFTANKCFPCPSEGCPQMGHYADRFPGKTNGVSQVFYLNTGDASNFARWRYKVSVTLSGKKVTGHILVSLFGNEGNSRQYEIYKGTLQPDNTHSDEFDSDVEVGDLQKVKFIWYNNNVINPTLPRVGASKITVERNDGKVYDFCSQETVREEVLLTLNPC
Experimental: The lipase inhibition assay was based on a previous protocol. […] Then, 20 µL of pNPB (10 mM in ethanol) was added to each well and incubated for another 15 min at 37 °C. Blanks and control wells were made.

[2] = DPPH free radical scavenging assay; conditions: concentration causing 50% decrease in initial DPPH concentration
Experimental: (§1) The in vitro antioxidant activity of the different samples was assessed through three assays by means of standard methods using a SPECTROstar Omega (BMG LABTECH GmbH, Ortenberg, Germany) microplate reader. For the preparation of the stock solution, around 10 ± 1 mg of the different samples were diluted in 1 mL of methanol in an Eppendorf. Then, 100 µL of this stocked solution was diluted with 900 µL of methanol for the analyses. All analyses were conducted at least twice.
The free radical scavenging activity was evaluated using 1, 1-diphenyl-2-picrylhydrazyl (DPPH) on microplate analytical assay, as described by Beghelli et al. and Censi et al.. […] The absorbance of the wells was measured at 517 nm with a microplate reader against a blank prepared using methanol in addition to the DPPH reagent to get rid of any inherent solvent activity.
The total radical scavenging activity was measured using 2, 2′-azino-bis (3-ethylbenzothiazoline-6-sulphonic acid) (ABTS) assay. […] The working solution was obtained by filtration and dilution with methanol of the previous mixture to give an absorbance of AU 1 at 734 nm. […] After 15 min of incubation, the absorbance of each well was determined at 734 nm. […]

[3] = ABTS radical cation decolorization assay; conditions: concentration causing 50% decrease in initial ABTS concentration
Experimental: as §1
The total radical scavenging activity was measured using 2, 2′-azino-bis (3-ethylbenzothiazoline-6-sulphonic acid) (ABTS) assay. The ABTS^•+ solution was freshly prepared by the oxidation of ABTS (10 mg) by MnO2 (0.75 g) in the presence of distilled water (4 mL), followed by 30 min of incubation away from light at room temperature. The working solution was obtained by filtration and dilution with methanol of the previous mixture to give an absorbance of AU 1 at 734 nm. The extract concentrations used were the same as for the DPPH assay, and 200 µL of the ABTS solution was added to the wells. After 15 min of incubation, the absorbance of each well was determined at 734 nm. Trolox (6-hydroxy-2,5,7,8-tetramethylchroman-2-carboxylic acid) was the reference compound used in both DPPH and ABTS assays. […]

Which lipase inhibition reached [1] does the source give for `CCCCCCCCCCC[C@@H](C[C@@H]1OC(=O)[C@H]1CCCCCC)OC(=O)[C@H](CC(C)C)NC=O` [Orlistat] here?
The lipase inhibition reached was 75%.

What does the source list for `Cc1c(C)c2c(c(C)c1O)CCC(C)(C(=O)O)O2` (stereo not drawn) [Trolox, 6-hydroxy-2,5,7,8-tetramethylchroman-2-carboxylic acid]?
DPPH IC50 [2]: 5.3 ± 1.1 µg/mL; ABTS IC50 [3]: 4.7 ± 0.2 µg/mL

Reference: article PMC7020459, “Antioxidant and Enzyme Inhibitory Properties of the Polyphenolic-Rich Extract from an Ancient Apple Variety of Central Italy (Mela Rosa dei Monti Sibillini)” (Plants, 2019)
